Counter-ions that a name gives are not always drawn.
What was measured:
[1] = system: A431 cells (human epidermoid carcinoma); assay: In vitro tumor cell proliferation assay (Cell Titer-Glo luminescent cell viability), A431 cells; format: cell-based; settings: A-431, 72 h drug exposure, ATP luminescence readout, read-out: IC50, anti-proliferative activity (inhibition of cell proliferation) in A431 cells
Text: (§1) The tumor cell proliferation assay used to test the compounds of the present invention involves a readout called Cell Titer-Glow® Luminescent Cell Viability Assay developed by Promega® (Cunningham, B A “A Growing Issue: Cell Proliferation Assays, Modern kits ease quantification of cell growth” The Scientist 2001, 15(13), 26, and Crouch, S P et al., “The use of ATP bioluminescence as a measure of cell proliferation and cytotoxicity” Journal of Immunological Methods 1993, 160, 81-88), that measures inhibition of cell proliferation. Generation of a luminescent signal corresponds to the amount of ATP present, which is directly proportional to the number of metabolically active (proliferating) cells.
(§2) A431 cells (human epidermoid carcinoma, ATCC # HTB-20) and BT474 (human breast carcinoma, ATCC # CRL-1555) were plated at a density of 2.5×10^3 cells/well in 96 well black-clear bottom tissue culture plates in RPMI media with 10% Fetal Bovine Serum and incubated at 37° C. Twenty-four h later, test compounds are added at a final concentration range from as high 100 μm to as low 64 pM depend on the activities of the tested compounds in serial dilutions at a final DMSO concentration of 0.1%. Cells were incubated for 72 h at 37° C. in complete growth media after addition of the test compound. After 72 h of drug exposure, the plates were equilibrated to room temperature for approximately 30 min. Then, using a Promega Cell Titer Glo Luminescent® assay kit, lysis buffer containing 100 microliters of the enzyme luciferase and its substrate, luciferin mixture, was added to each well. The plates were mixed for 2 min on orbital shaker to ensure cell lysis and incubated for 10 min at room temperature to stabilize luminescence signal. The samples were read on VICTOR 2 using Luminescence protocol, and analyzed with Analyze5 software to generate IC50 values.
(§3) For determination of IC50's, a linear regression analysis can be used to determine drug concentration which results in a 50% inhibition of cell proliferation using this assay format. In A431 cells, Examples 1-7, 9-11, 14-18, and 20-21 have IC50's≦5 μM; whereas examples 8, 12, 13, 19, and 22 have IC50's≦50 μM. In BT474 cells, examples 1-7, 9-11, 13-18, and 20-22 have IC50's≦50 μM; whereas examples 8, 12, and 19 have IC50's≦50 μM.

[2] = system: BT474 (human breast carcinoma); assay: In vitro tumor cell proliferation assay (Cell Titer-Glo luminescent cell viability), BT474 cells; format: cell-based; settings: BT-474, 72 h drug exposure, ATP luminescence readout, read-out: IC50, anti-proliferative activity (inhibition of cell proliferation) in BT474 cells
Text: as §1, §2, §3

| Structure (SMILES) | IC50 [1] [µM] | IC50 [2] [µM] |
| --- | --- | --- |
| OCCn1cc2c(ccc3c2sc2ncnc(Nc4ccc(F)c(Cl)c4)c23)n1 [Example 1, 2-{6-[(3-chloro-4fluorophenyl)amino]-2H-pyrimido[5′,4′:4,5]thieno[2,3-e]indazol-2-yl}ethanol] | ≤ 5 | ≤ 50 |
| CS(=O)(=O)OCCn1cc2c(ccc3c2sc2ncnc(Nc4ccc(F)c(Cl)c4)c23)n1 [Example 2, 2-{6-[(3-chloro-4fluorophenyl)amino]-2H-pyrimido[5′,4′:4,5]thieno[2,3-e]indazol-2-yl}ethylmethanesulfonate] | ≤ 5 | ≤ 50 |
| CS(=O)(=O)CCNCCn1cc2c(ccc3c2sc2ncnc(Nc4ccc(F)c(Cl)c4)c23)n1 [Example 3, N-(3-chloro-4-fluorophenyl)-2-(2-{[2-(methylsulfonyl)ethyl]amino}ethyl)-2H-pyrimido[5′,4′:4,5]thieno[2,3-e]indazol-6-amine] | ≤ 5 | ≤ 50 |
| CN(C)[C@@H]1CCN(CCn2cc3c(ccc4c3sc3ncnc(Nc5ccc(F)c(Cl)c5)c34)n2)C1 [Example 4] | ≤ 5 | ≤ 50 |
| Fc1ccc(Nc2ncnc3sc4c5cn(CCNCCN6CCOCC6)nc5ccc4c23)cc1Cl [Example 5, N-(3-chloro-4-fluorophenyl)-2-{2-[(2-morpholin-4-ylethyl)amino]ethyl}-2H-pyrimido[5′,4′:4,5]thieno[2,3-e]indazol-6-amine] | ≤ 5 | ≤ 50 |
| COCCNCCn1cc2c(ccc3c2sc2ncnc(Nc4ccc(F)c(Cl)c4)c23)n1 [Example 6, N-(3-chloro-4-fluorophenyl)-2-{2-[(2-methoxyethyl)amino]ethyl}-2H-pyrimido[5′,4′:4,5]thieno[2,3-e]indazol-6-amine] | ≤ 5 | ≤ 50 |
| OCCNCCn1cc2c(ccc3c2sc2ncnc(Nc4ccc(F)c(Cl)c4)c23)n1 [Example 7, 2-[(2-{6-[(3-chloro-4-fluorophenyl)amino]-2H-pyrimido[5′,4′:4,5]thieno[2,3-e]indazol-2-yl}ethyl)amino]ethanol] | ≤ 5 | ≤ 50 |
| COCCN(CCOC)CCn1cc2c(ccc3c2sc2ncnc(Nc4ccc(F)c(Cl)c4)c23)n1 [Example 8, 2-{2-[bis(2-methoxyethyl)amino]ethyl}-N-(3-chloro-4-fluorophenyl)-2H-pyrimido[5′,4′:4,5]thieno[2,3-e]indazol-6-amine] | ≤ 50 | ≤ 50 |
| Fc1ccc(Nc2ncnc3sc4c5cn(CCN6CCOCC6)nc5ccc4c23)cc1Cl [Example 9, N-(3-chloro-4-fluorophenyl)-2-(2-morpholin-4-ylethyl)-2H-pyrimido[5′,4′:4,5]thieno[2,3-e]indazol-6-amine] | ≤ 5 | ≤ 50 |
| Fc1ccc(Nc2ncnc3sc4c5cn(CCN6CCNCC6)nc5ccc4c23)cc1Cl [Example 10, N-(3-chloro-4-fluorophenyl)-2-(2-piperazin-1-ylethyl)-2H-pyrimido[5′,4′:4,5]thieno[2,3-e]indazol-6-amine] | ≤ 5 | ≤ 50 |
| CN1CCN(CCn2cc3c(ccc4c3sc3ncnc(Nc5ccc(F)c(Cl)c5)c34)n2)CC1 [Example 11, N-(3-chloro-4-fluorophenyl)-2-[2-(4-methylpiperazin-1-yl)ethyl]-2H-pyrimido[5′,4′:4,5]thieno[2,3-e]indazol-6-amine] | ≤ 5 | ≤ 50 |
| Fc1ccc(Nc2ncnc3sc4c5cn(CCn6ccnc6)nc5ccc4c23)cc1Cl [Example 12, N-(3-chloro-4-fluorophenyl)-2-[2-(1H-imidazol-1-yl)ethyl]-2H-pyrimido[5′,4′:4,5]thieno[2,3-e]indazol-6-amine] | ≤ 50 | ≤ 50 |
| CN(C)[C@H]1CCN(CCn2cc3c(ccc4c3sc3ncnc(Nc5ccc(F)c(Cl)c5)c34)n2)C1 [Example 13, N-(3-chloro-4-fluorophenyl)-2-{2-[(3S)-3-(dimethylamino)pyrrolidin-1-yl]ethyl}-2H-pyrimido[5′,4′:4,5]thieno[2,3-e]indazol-6-amine] | ≤ 50 | ≤ 50 |
| OCCN(CCO)CCn1cc2c(ccc3c2sc2ncnc(Nc4ccc(F)c(Cl)c4)c23)n1 [Example 14, 2,2′-[(2-{6-[(3-chloro-4-fluorophenyl)amino]-2H-pyrimido[5′,4′:4,5]thieno[2,3-e]indazol-2-yl}ethyl)imino]diethanoltrifluoroacetate (salt)] | ≤ 5 | ≤ 50 |
| COCCN1CCN(CCn2cc3c(ccc4c3sc3ncnc(Nc5ccc(F)c(Cl)c5)c34)n2)CC1 [Example 15, N-(3-chloro-4-fluorophenyl)-2-{2-[4-(2-methoxyethyl)piperazin-1-yl]ethyl}-2H-pyrimido[5′,4′:4,5]thieno[2,3-e]indazol-6-amine] | ≤ 5 | ≤ 50 |
| Fc1ccc(Nc2ncnc3sc4c5cn(CCN6CCCCC6)nc5ccc4c23)cc1Cl [Example 16, N-(3-chloro-4-fluorophenyl)-2-(2-piperidin-1-ylethyl)-2H-pyrimido[5′,4′:4,5]thieno[2,3-e]indazol-6-amine] | ≤ 5 | ≤ 50 |
| Fc1ccc(Nc2ncnc3sc4c5cn(CCN6CCCC6)nc5ccc4c23)cc1Cl [Example 17, N-(3-chloro-4-fluorophenyl)-2-(2-pyrrolidin-1-ylethyl)-2H-pyrimido[5′,4′:4,5]thieno[2,3-e]indazol-6-amine] | ≤ 5 | ≤ 50 |
| Fc1ccc(Nc2ncnc3sc4c5cn(CCN6CCN(Cc7ccncc7)CC6)nc5ccc4c23)cc1Cl [Example 18, N-(3-chloro-4-fluorophenyl)-2-{2-[4-(pyridin-4-ylmethyl)piperazin-1-yl]ethyl}-2H-pyrimido[5′,4′:4,5]thieno[2,3-e]indazol-6-amine] | ≤ 5 | ≤ 50 |
| COCCN(C)CCn1cc2c(ccc3c2sc2ncnc(Nc4ccc(F)c(Cl)c4)c23)n1 [Example 19, N-(3-chloro-4-fluorophenyl)-2-{2-[(2-methoxyethyl)(methyl)amino]ethyl}-2H-pyrimido[5′,4′:4,5]thieno[2,3-e]indazol-6-amine] | ≤ 50 | ≤ 50 |
| CN(C)[C@H]1CCN(CCn2ncc3c4sc5ncnc(Nc6ccc(F)c(Cl)c6)c5c4ccc32)C1 [Example 20, N-(3-chloro-4-fluorophenyl)-3-{2-[(3S)-3-(dimethylamino)pyrrolidin-1-yl]ethyl}-3H-pyrimido[5′,4′:4,5]thieno[2,3-e]indazol-6-amine] | ≤ 5 | ≤ 50 |
| OCCn1ncc2c3sc4ncnc(Nc5ccc(OCc6cccc(F)c6)c(Cl)c5)c4c3ccc21 [Example 21, 2-[6-({3-chloro-4-[(3-fluorobenzyl)oxy]phenyl}amino)-3H-pyrimido[5′,4′:4,5]thieno[2,3-e]indazol-3-yl]ethanol] | ≤ 5 | ≤ 50 |
| Clc1cc(Nc2ncnc3sc4c(ccc5c4cnn5CCBr)c23)ccc1OCc1ccccn1 [Example 22, 3-(2-bromoethyl)-N-[3-chloro-4-(pyridin-2-ylmethoxy)phenyl]-3H-pyrimido[5′,4′:4,5]thieno[2,3-e]indazol-6-amine] | ≤ 50 | ≤ 50 |

From patent US7511048B2, “Pyrimidothienoindazoles” (Bayer Pharmaceuticals Corporation, priority 2004, dated 2009)
